The test system of assay [1] is cell architecture. Description: Cell architecture modification, phase contrast. In kind it is cell-based. Set-up: key: −: no effect of the compound was observed; +: an effect of the compound was observed.
The subject of assay [2] is NIH3T3. Description: Cytoskeleton analysis, actin staining (FITC-phalloidin). The following applies: for Cell architecture modification actin staining (R: ruffles; FC: focal complexes) NIH3T3: 24 h treatment. In kind it is cell-based, mouse. The procedure:
(§1) Since major rearrangements of cytoskeleton are observed in tumor cells and since the small GTPases are known to regulate these events, analysis of actin cytoskeleton was performed. Subconfluent cells seeded onto coverslips were treated with different concentration of compound (1, 10, 17.5, 25 and 50 μM) or vehicle for 24 h, before being fixed in 4% formaldehyde for 15 min., permeabilized in 0.2% Triton X100 for 5 minutes and incubated in PowerBlock (Biogenex) for 10 min. Actin filaments were stained with 0.5 μg/ml fluorescein isothiocyanate (FITC)-labelled phalloidin for 1 hour. Analysis was performed using an inverted fluorescent microscope.

Assay [3] deals with Ras. Description: Ras-dependant signaling pathway analysis (reporter system). The assay is classed as cell-based. Also on record: key: −: no effect of the compound was observed; +: an effect of the compound was observed. The protocol: (§2) The impact of the compounds on Ras and Rac signaling pathways was analysed with two reporter systems described by Imler (Nature 1988) and Lin (Science, 1995) respectively on one hand, and by a colony formation assay in the presence of constitutively activated Ras (RasV12) and Rac (RacV12) on the other hand. For this latter experiment, fifty percent confluent NIH3T3 cells in a 10 cm diameter petri dish were transfected with 0.5 μg pSV2-RasV12 or 0.5 μg pEXV RacV12 plasmids plus 100 ng of pSV2-neomycin plasmid using Lipofectamine-Plus reagent (Invitrogen) according to the manufacturer's instructions. Forty-eight hours later, cells were trypsinised, splitted to ⅓, and incubated in the presence of complete medium supplemented with 400 μg/ml geneticin (Invitrogen) and different doses of compound (1, 10, 17.5, 25 and 50 μM) until emerging resistant clones appear (2-3 weeks). The medium was renewed every 3 days. Colonies with a minimum of 50 cells were counted after staining with Fuschin 2%.

For assay [4], the system named is Rac. Description: Rac-dependant signaling pathway analysis (reporter system). The assay is classed as cell-based. Also on record: key: −: no effect of the compound was observed; +: an effect of the compound was observed. The protocol:
as §2

For assay [5], the system named is H460 lung carcinoma. Description: Cytotoxicity assay (MTT), 6 days. The following applies: Homo sapiens, NCI-H460, 144 h, 6 days of treatment, read-out: Toxicity 6d (IC 50, μM) H460. In kind it is cell-based. A digest of the protocol:
(§3)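 Cells seeded 24 h before treatment with 0, 1, 10, 17.5, 25 and 50 μM compound in DMSO (1% final). After 6 days, cells were incubated 3 h at 37° C with 0.5 mg/ml MTT in PBS, formazan dissolved in DMSO, absorbance read at 550 nm; surviving fraction and IC50 calculated, triplicate.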

Assay [6] deals with MDA-MB-231 breast carcinoma. Description: Cytotoxicity assay (MTT), 6 days. The assay is classed as cell-based. The settings on record: Homo sapiens, MDA-MB-231, 144 h, 6 days of treatment, read-out: Toxicity 6d (IC 50, μM) MDA231. A digest of the protocol: as §3
Assay [7] deals with MCF-7 breast carcinoma. Description: Cytotoxicity assay (MTT), 6 days. In kind it is cell-based. The settings on record: Homo sapiens, MCF7, 144 h, 6 days of treatment, read-out: Toxicity 6d (IC 50, μM) MCF7. An outline of the steps:
as §3

Assay [8] concerns HCT116 colon adenocarcinoma. Description: Cytotoxicity assay (MTT), 6 days. The settings on record: 6 days of treatment, read-out: Toxicity 6d (IC 50, μM) HCT116. In kind it is cell-based, human. An outline of the steps:
as §3

The subject of assay [9] is NIH3T3 cells. Description: Colony formation assay with constitutively activated Ras (RasV12) and Rac (RacV12). The assay is classed as cell-based, mouse. Set-up: key to Colony formation: −: no effect of the compound was observed; +: an effect of the compound was observed. The procedure:
as §2

For assay [10], the system named is MDA231. Description: Cytoskeleton analysis, actin staining (FITC-phalloidin). The assay is classed as cell-based, human. The following applies: 24 h treatment. The procedure:
as §1

Assay [11] deals with MDA-MB-231 cells. Description: Matrigel invasion assay (Boyden chamber). The assay is classed as cell-based, human. The following applies: for Invasion: MDA-MB-231, Boyden chamber, matrigel. The protocol: Chemoinvasion assay was performed in Boyden chamber as described by Albini et al (Cancer Res, 1987) with some modifications. Polycarbonate membranes with 8 μm pores were coated with matrigel (125 μg/cm^2) at room temperature for 48 h. Two hours before experiments, the matrix was […] with serum-free medium containing 0.1% BSA.
(§4) One day after seeding, 10^6 MDA-MB-231 cells were treated overnight with different concentrations of compounds (1, 10, 17.5, 25 and 50 μM). Cells were collected with Versene (Invitrogen), counted with trypan blue exclusion, rinsed twice in serum-free medium containing 0.1% BSA and resuspended in serum-free medium containing 0.1% BSA plus the appropriate concentration of compound. 10^5 treated cells were placed in the upper chamber. Medium containing 10% of FBS plus the appropriate concentration of compound was placed in the lower chamber as a chemoattractant. The Boyden chamber was incubated 6 hours at 37° C. before the cells were fixed and stained with Diff-Quick (Dade-Berhing). Cells on the upper part of the filters were removed using a cotton swab. Cells on the underside of the filters were visualised and counted under light microscope.

Assay [12] concerns MCF10-A. Description: Cytotoxicity assay (MTT), 6 days. The assay is classed as cell-based. The settings on record: Homo sapiens, MCF-10A, 144 h, 6 days of treatment, read-out: Toxicity 6d (IC 50, μM) MCF10-A. An outline of the steps: as §3
Assay [13] has as its system NIH3T3 mouse fibroblasts. Description: Cytotoxicity assay (MTT), 6 days. The following applies: NIH3T3, 144 h, 6 days of treatment, read-out: Toxicity 6d (IC 50, μM) NIH3T3. The assay is classed as cell-based. An outline of the steps: as §3
Assay [14] relates to MRC-5. Description: Cytotoxicity assay (MTT), 6 days. In kind it is cell-based. The following applies: Homo sapiens, MRC5, 144 h, 6 days of treatment, read-out: Toxicity 6d (IC 50, μM) MRC-5. An outline of the steps: as §3
The subject of assay [15] is MDA-MB-231 cells. Description: Migration assay (Boyden chamber, non-coated filters). In kind it is cell-based, human. The following applies: MDA-MB-231, Boyden chamber. The protocol:
as §4
The migration assay was performed the same way, using non-coated filters.

Like-named read-outs stand apart in the source and are kept apart here.

On to `O=c1cc(CO)occ1OCCCCCOc1ccc(Cl)c(Cl)c1` [EH5500, 5-[5-(3,4-Dichlorophenyloxy)pentyloxy]-2-(hydroxymethyl)-4H-pyran-4-one], for which the “Cell architecture modification phase contrast” value in assay [1] is “+”. Besides, the “general morphology of NIH3T3 cells, as detected by β-actin staining” value in assay [2] is “affected”. For the same compound, the “Cell architecture modification actin staining (R: ruffles; FC: focal complexes) NIH3T3” value in assay [2] is recorded as “cell destructuration”. Further, the “Small GTPases activities Ras” value in assay [3] is reported as “−”. In addition, the “Small GTPases activities Rac” value in assay [4] was “−”. In addition, the IC50 in [5] was 15 µM; in assay [6] it was above 50 µM; in assay [7], 35 µM; in [8] (Homo sapiens, HCT-116, 144 h), 50 µM. Besides, in assay [9], the Colony formation entry is on record as “−”.
`O=c1cc(COCc2ccccc2)occ1OCCCCCOc1ccc(Cl)c(Cl)c1` [EH7701, 2-(Benzyloxymethyl)-5-[5-(3,4-dichlorophenyloxy)pentyloxy]-4H-pyran-4-one]: the “Cell architecture modification phase contrast” value in [1] is “−”. In assay [10], the “Cell architecture modification actin staining MDA231” value is recorded as “cell spreading”. Further, in assay [11], the Invasion entry was “No effect”. In addition, the IC50 in [12] was above 50 µM; in assay [5], 6 µM; in assay [13], 40 µM; in assay [14], 20 µM; in assay [6], 22.5 µM; in [7], 17.5 µM. Besides, the IC50 in assay [8] was 7.5 µM; in assay [8] (Homo sapiens, HCT-116, 144 h), at most 15 µM.
For `O=c1cc(CO)occ1OCCCCCOc1cccc(Cl)c1` [EH10600, 5-[5-(3-Chlorophenyloxy)pentyloxy]-2-(hydroxymethyl)-4H-pyran-4-one], the “Cell architecture modification phase contrast” value in assay [1] is “+”. For the same compound, the “general morphology of NIH3T3 cells, as detected by β-actin staining” value in assay [2] is “affected”. Also, in assay [2], the “Cell architecture modification actin staining (R: ruffles; FC: focal complexes) NIH3T3” value is reported as “cell destructuration”. Moreover, in [3], the “Small GTPases activities Ras” value was “−”. Moreover, the “Small GTPases activities Rac” value in assay [4] is on record as “−”. The IC50 in assay [5] was 25 µM; in assay [6], 10 µM; in assay [7], 40 µM; in assay [8] (Homo sapiens, HCT-116, 144 h) it was above 50 µM. The Colony formation result in assay [9] was “−”.
Take `CCCc1c(OCCCCCCOc2coc(CO)cc2=O)ccc(Cl)c1Cl` [EH16701]: in assay [1], the “Cell architecture modification phase contrast” value is “−”. Moreover, the “Cell architecture modification actin staining MDA231” value in [10] is “cell spreading”. Moreover, the Invasion entry in [11] is “No effect”. The IC50 in assay [12] was above 50 µM; in assay [5], 7 µM; in [13], above 50 µM; in assay [14], above 50 µM; in assay [6], 47.5 µM; in assay [7] it was 15 µM. In addition, the IC50 was 8.5 µM in assay [8] and at most 15 µM in assay [8] (Homo sapiens, HCT-116, 144 h).
In the case of `O=c1cc(CO)occ1OCCCCOc1ccc(Cl)c(Cl)c1` [EH17700, 5-[4-(3,4-Dichlorophenyloxy)butyloxy]-2-(hydroxymethyl)-4H-pyran-4-one], in assay [15], the Migration entry is “no effect”. The “Cell architecture modification phase contrast” value in assay [1] was “−”. In addition, the “Small GTPases activities Ras” value in assay [3] was “−”. Further, the “Small GTPases activities Rac” value in assay [4] is recorded as “−”. The IC50 in assay [5] was 15 µM; in assay [14] it was above 50 µM; in assay [6], 15 to 20 µM; in assay [7], 20 µM; in assay [8] (Homo sapiens, HCT-116, 144 h), 30 µM. Also, in assay [9], the Colony formation entry is listed as “−”.
With `CCCc1c(OCCCCCCCOc2coc(CO)cc2=O)ccc(Cl)c1Cl` [EH17701, 5-[7-(3,4-Dichloro-2-propylphenyloxy)heptyloxy]-2-(hydroxymethyl)-4H-pyran-4-one], the “Cell architecture modification phase contrast” value in assay [1] was “−”. Also, the “Cell architecture modification actin staining MDA231” value in assay [10] was “cell spreading”. For the same compound, the “concentration giving significant inhibition of invasive properties of MDA-MB-231 cells” value in assay [11] was 17.5 µM. The IC50 is above 50 µM in [12]; 5 to 10 µM in assay [5]; 17.5 µM in assay [14]; 35 µM in assay [6]; 15 µM in assay [7].
